According to patent US11491120B2, “Pharmacological prophylactics against stress-induced affective disorders in females” (The Trustees of Columbia University in the City of New York, priority 2017, dated 2022):
“Also recorded” adds a separate entry of the source.

Tested on: female 129S6/SvEv mice
Test: Contextual fear conditioning (CFC), 3-shock, freezing in training and context re-exposure
Conditions: for Freezing during CFC re-exposure vs saline: vehicle condition; for Freezing during re-exposure to the CFC training context vs saline: single i.p. injection 1 week before 3-shock CFC, all doses; for Freezing during re-exposure to the CFC training context vs saline / Attenuation of learned fear: female mice; for Attenuation of learned fear: single injection 1 week before stressor
[1] = Contextual Fear Conditioning Training, Dunnett test Sal vs. drug (30), 1 week prophylactic drug
[2] = Ovariectomized cohort, 1 week prophylactic drug, Contextual Fear Conditioning Re-exposure, FIG. 10B, Sham mice, K (10), (2R,6R)-HNK (0.025)
[3] = Ovariectomized cohort, 1 week prophylactic drug, Contextual Fear Conditioning Re-exposure, FIG. 10C, Sham mice, K (10), (2R,6R)-HNK (0.025)
[4] = Ovariectomized, E2/P4 replacement, 1 week prophylactic drug, Contextual Fear Conditioning Re-exposure, FIG. 10E, Vehicle (hormone) mice, K (10), (2R,6R)-HNK (0.025)
[5] = Ovariectomized, E2/P4 replacement, 1 week prophylactic drug, Contextual Fear Conditioning Re-exposure, FIG. 10F, Vehicle (hormone) mice, K (10), (2R,6R)-HNK (0.025)
[6] = Ovariectomized, E2/P4 replacement, 1 week prophylactic drug, Contextual Fear Conditioning Training, FIG. 10D, Vehicle vs E2/P4, same drug, K (10), (2R,6R)-HNK (0.025)
[7] = Sal vs. K (2.5), Fisher's PLSD, 3 day prophylactic drug/Contextual Fear Conditioning Training
[8] = Sal vs. K (10), Fisher's PLSD, 1 week prophylactic drug, learned helplessness stress, Contextual Fear Conditioning Re-exposure
[9] = Sal vs. K (10), Fisher's PLSD, 3 day prophylactic drug/Contextual Fear Conditioning Training
[10] = Sal vs. K (10), Fisher's PLSD, Stress, antidepressant drug/Contextual Fear Conditioning Training

## CNC1(c2ccccc2Cl)CCCCC1=O (racemic) [(R,S)-ketamine, (RS)-2-(2-chlorophenyl)-2-(methylamino)cyclohexanone]
[1]
  p, Freezing (min 4): >0.9999
  p, Freezing (min 5): 0.9997
Ovariectomized cohort, 1 week prophylactic drug, Contextual Fear Conditioning Re-exposure, FIG. 10B, OVX mice, K (10), (2R,6R)-HNK (0.025)
  p, Freezing (min 1-5), Fisher's PLSD, OVX Sal vs OVX drug: 0.1532
[2]
  * (significance), Freezing (min 1-5), Fisher's PLSD, Sham Sal vs Sham drug: * (* p<0.05)
  p, Freezing (min 1-5), Fisher's PLSD, Sham Sal vs Sham drug: 0.0290
Ovariectomized cohort, 1 week prophylactic drug, Contextual Fear Conditioning Re-exposure, FIG. 10B, Sham vs OVX, same drug, K (10), (2R,6R)-HNK (0.025)
  p, Freezing (min 1-5), Fisher's PLSD, Sham drug vs OVX drug: 0.7813
Ovariectomized cohort, 1 week prophylactic drug, Contextual Fear Conditioning Re-exposure, FIG. 10C, OVX mice, K (10), (2R,6R)-HNK (0.025)
  p, Freezing Average (min 1-5), Fisher's PLSD, OVX Sal vs OVX drug: 0.1532
[3]
  * (significance), Freezing Average (min 1-5), Fisher's PLSD, Sham Sal vs Sham drug: * (* p<0.05)
  p, Freezing Average (min 1-5), Fisher's PLSD, Sham Sal vs Sham drug: 0.0290
Ovariectomized cohort, 1 week prophylactic drug, Contextual Fear Conditioning Re-exposure, FIG. 10C, Sham vs OVX, same drug, K (10), (2R,6R)-HNK (0.025)
  p, Freezing Average (min 1-5), Fisher's PLSD, Sham drug vs OVX drug: 0.7813
Ovariectomized, E2/P4 replacement, 1 week prophylactic drug, Contextual Fear Conditioning Re-exposure, FIG. 10E, E2/P4 mice, K (10), (2R,6R)-HNK (0.025)
  p, Freezing (min 1-5), Fisher's PLSD, E2/P4 Sal vs E2/P4 drug: 0.7946
[4]
  * (significance), Freezing (min 1-5), Fisher's PLSD, Vehicle Sal vs Vehicle drug: ** (** p<0.01)
  p, Freezing (min 1-5), Fisher's PLSD, Vehicle Sal vs Vehicle drug: 0.0077
Ovariectomized, E2/P4 replacement, 1 week prophylactic drug, Contextual Fear Conditioning Re-exposure, FIG. 10E, Vehicle vs E2/P4, same drug, K (10), (2R,6R)-HNK (0.025)
  p, Freezing (min 1-5), Fisher's PLSD, Vehicle drug vs E2/P4 drug: 0.2095
Ovariectomized, E2/P4 replacement, 1 week prophylactic drug, Contextual Fear Conditioning Re-exposure, FIG. 10F, E2/P4 mice, K (10), (2R,6R)-HNK (0.025)
  p, Freezing Average (min 1-5), Fisher's PLSD, E2/P4 Sal vs E2/P4 drug: 0.7946
[5]
  * (significance), Freezing Average (min 1-5), Fisher's PLSD, Vehicle Sal vs Vehicle drug: ** (** p<0.01)
  p, Freezing Average (min 1-5), Fisher's PLSD, Vehicle Sal vs Vehicle drug: 0.0077
Ovariectomized, E2/P4 replacement, 1 week prophylactic drug, Contextual Fear Conditioning Re-exposure, FIG. 10F, Vehicle vs E2/P4, same drug, K (10), (2R,6R)-HNK (0.025)
  p, Freezing Average (min 1-5), Fisher's PLSD, Vehicle drug vs E2/P4 drug: 0.2095
Ovariectomized, E2/P4 replacement, 1 week prophylactic drug, Contextual Fear Conditioning Training, FIG. 10D, E2/P4 mice, K (10), (2R,6R)-HNK (0.025)
  p, Freezing (min 1-5), Fisher's PLSD, E2/P4 Sal vs E2/P4 drug: 0.5725
Ovariectomized, E2/P4 replacement, 1 week prophylactic drug, Contextual Fear Conditioning Training, FIG. 10D, Vehicle (hormone) mice, K (10), (2R,6R)-HNK (0.025)
  p, Freezing (min 1-5), Fisher's PLSD, Vehicle Sal vs Vehicle drug: 0.1466
[6]
  * (significance), Freezing (min 1-5), Fisher's PLSD, Vehicle drug vs E2/P4 drug: ** (** p<0.01)
  p, Freezing (min 1-5), Fisher's PLSD, Vehicle drug vs E2/P4 drug: 0.0004
[7]
  *, Freezing (min 5): * (* p<0.05)
  p, Freezing (min 5): 0.0143
[8]
  *, Freezing (min 1): * (* p<0.05)
  p, Freezing (min 1): 0.0166
[9]
  *, Freezing (min 5): ** (** p<0.01)
  p, Freezing (min 5): 0.0078
[10]
  p, Freezing (min 1-5): 0.1932
  p, Freezing (min 5): 0.2639
Sal vs. K (30), Fisher's PLSD, 3 day prophylactic drug/Contextual Fear Conditioning Training
  p, Freezing (min 5): 0.0606
Ovariectomized mice, hormone replacement
  Freezing during CFC Training, E2/P4+drug vs vehicle+drug: froze significantly more
Ovariectomized mice
  Freezing during CFC re-exposure vs saline: displayed altered freezing
Ovariectomized mice, listed as (R, S)-ketamine
  Freezing during CFC re-exposure vs saline: froze significantly less than saline mice
Listed as (R, S)-ketamine
  Freezing during re-exposure to the CFC training context vs saline: did not alter fear encoding or fear retrieval; also recorded: did not alter overall freezing
  Attenuation of learned fear: do not attenuate learned fear; also recorded: do not alter learned fear
Listed as Racemic ketamine
  Freezing during re-exposure to the CFC training context vs saline: do not significantly alter freezing
  Attenuation of learned fear: do not attenuate learned fear
